Results on 50 compounds are retold here after patent publication US11555041B2, “Bridged bicyclic inhibitors of menin-MLL and methods of use” (Kura Oncology, Inc., priority 2016, dated 2023).

Bounds are passed on as bounds.

The target of this assay is T1, menin-MLL interaction (Menin MLL 4-43) (Homo sapiens, UniProt O00255).
T1 sequence (O00255 1-610): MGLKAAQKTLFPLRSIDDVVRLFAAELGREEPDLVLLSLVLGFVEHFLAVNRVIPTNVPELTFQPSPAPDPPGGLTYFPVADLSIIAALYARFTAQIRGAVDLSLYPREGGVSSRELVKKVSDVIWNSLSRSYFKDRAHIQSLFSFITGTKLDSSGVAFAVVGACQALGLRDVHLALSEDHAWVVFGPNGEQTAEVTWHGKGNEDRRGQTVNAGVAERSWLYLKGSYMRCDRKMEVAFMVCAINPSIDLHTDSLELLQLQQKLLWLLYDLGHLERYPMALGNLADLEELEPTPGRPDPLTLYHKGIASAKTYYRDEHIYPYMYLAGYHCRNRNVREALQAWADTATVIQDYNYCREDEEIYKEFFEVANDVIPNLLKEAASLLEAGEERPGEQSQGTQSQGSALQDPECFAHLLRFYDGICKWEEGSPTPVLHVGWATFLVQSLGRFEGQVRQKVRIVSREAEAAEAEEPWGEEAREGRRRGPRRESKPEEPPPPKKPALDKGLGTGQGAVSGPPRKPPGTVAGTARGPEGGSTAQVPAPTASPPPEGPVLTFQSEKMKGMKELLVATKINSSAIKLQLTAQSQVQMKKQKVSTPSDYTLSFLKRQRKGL
The assay can be described thus: Fluorescence polarization (FP) competition assay. Particulars: fluorescence polarization assay; read-out: Menin MLL 4-43 IC50. Type of assay: binding. (In general: Fluorescence polarisation rises when a labelled molecule tumbles more slowly, as on binding a larger partner.)
By IC50 is commonly meant the point on the concentration scale where inhibition reaches its midpoint. For the compound `Cc1c(CN2CCC(Nc3ncnc4sc(CC(F)(F)F)cc34)CC2)ccc2c1cc(C#N)n2CC12CC(NC(=O)CN)(C1)C2` (single isomer, unassigned) [Compound 61], the IC50 is 250 to 1000 nM. Under `C=CC(=O)NC12CC(Cn3c(C#N)cc4c(C)c(CN5CCC(Nc6ncnc7sc(CC(F)(F)F)cc67)CC5)ccc43)(C1)C2` [Compound 1] stands 50 to 250 nM; under `CC(=O)NC12CC(Cn3c(C#N)cc4c(C)c(CN5CCC(Nc6ncnc7sc(CC(F)(F)F)cc67)CC5)ccc43)(C1)C2` [Compound 2], 50 to 250 nM; under `Cc1c(CN2CCC(Nc3ncnc4sc(CC(F)(F)F)cc34)CC2)ccc2c1cc(C#N)n2CC12CC(N(C)C)(C1)C2` [Compound 5], 250 to 1000 nM. In the case of `Cc1c(CN2CCC(Nc3ncnc4sc(CC(F)(F)F)cc34)CC2)ccc2c1cc(C#N)n2CC12CC(NC(=O)C(F)(F)F)(C1)C2` [Compound 6], the IC50 was 250 to 1000 nM. Then `CNC(=O)NC12CC(Cn3c(C#N)cc4c(C)c(CN5CCC(Nc6ncnc7sc(CC(F)(F)F)cc67)CC5)ccc43)(C1)C2` [Compound 7], with less than 50 nM. Turning to `Cc1c(CN2CCC(Nc3ncnc4sc(CC(F)(F)F)cc34)CC2)ccc2c1cc(C#N)n2CC12CC(NC(=O)C(C)C)(C1)C2` [Compound 8], the half-inhibitory concentration (IC50) was 50 to 250 nM. Then `Cc1c(CN2CCC(Nc3ncnc4sc(CC(F)(F)F)cc34)CC2)ccc2c1cc(C#N)n2CC12CC(NC(=O)C3CC3)(C1)C2` [Compound 9], with 50 to 250 nM. As to `CNC12CC(Cn3c(C#N)cc4c(C)c(CN5CCC(Nc6ncnc7sc(CC(F)(F)F)cc67)CC5)ccc43)(C1)C2` [Compound 10], the IC50 fell in the range of 50 to 250 nM.

`Cc1c(CN2CCC(Nc3ncnc4sc(CC(F)(F)F)cc34)CC2)ccc2c1cc(C#N)n2CCC12CC(N)(C1)C2` [Compound 11]: the IC50 was 250 to 1000 nM. In the case of `CCC(=O)NC12CC(CCn3c(C#N)cc4c(C)c(CN5CCC(Nc6ncnc7sc(CC(F)(F)F)cc67)CC5)ccc43)(C1)C2` [Compound 12], the IC50 is greater than 1000 nM.

`Cc1c(CN2CCC(Nc3ncnc4sc(CC(F)(F)F)cc34)CC2)ccc2c1cc(C#N)n2CC12CC(N)(C1)C2` [Compound 13]: the 50% inhibitory concentration (IC50) is 50 to 250 nM. Under `C=CC(=O)NC12CC(CCn3c(C#N)cc4c(C)c(CN5CCC(Nc6ncnc7sc(CC(F)(F)F)cc67)CC5)ccc43)(C1)C2` [Compound 14] stands 250 to 1000 nM.

For `Cc1c(CN2CCC(Nc3ncnc4sc(CC(F)(F)F)cc34)CC2)ccc2c1cc(C#N)n2CC12CC(NC=O)(C1)C2` [Compound 15], the IC50 is less than 50 nM.

As for `Cc1c(CN2CCC(Nc3ncnc4sc(CC(F)(F)F)cc34)CC2)ccc2c1cc(C#N)n2CC12CC(NC(=O)CO)(C1)C2` [Compound 16], the IC50 lay in the range of 50 to 250 nM. Under `Cc1c(CN2CCC(Nc3ncnc4sc(CC(F)(F)F)cc34)CC2)ccc2c1cc(C#N)n2CC12CC(NC(=O)CN)(C1)C2` [Compound 17] stands less than 50 nM; under `CNC(=O)C12CC(Cn3c(C#N)cc4c(C)c(CN5CCC(Nc6ncnc7sc(CC(F)(F)F)cc67)CC5)ccc43)(C1)C2` [Compound 18], 50 to 250 nM; under `Cc1c(CN2CCC(Nc3ncnc4sc(CC(F)(F)F)cc34)CC2)ccc2c1cc(C#N)n2CC12CC(C(=O)O)(C1)C2` [Compound 20], greater than 1000 nM. Take `C=CC(=O)N[C@H]1C[C@@H](Cn2c(C#N)cc3c(C)c(CN4CCC(Nc5ncnc6sc(CC(F)(F)F)cc56)CC4)ccc32)C1` [Compound 29]: the 50% inhibitory concentration (IC50) was 50 to 250 nM.

Regarding `C=CC(=O)N[C@H]1C[C@H](Cn2c(C#N)cc3c(C)c(CN4CCC(Nc5ncnc6sc(CC(F)(F)F)cc56)CC4)ccc32)C1` [Compound 30], the IC50 was 50 to 250 nM. `CC(=O)N[C@H]1C[C@@H](Cn2c(C#N)cc3c(C)c(CN4CCC(Nc5ncnc6sc(CC(F)(F)F)cc56)CC4)ccc32)C1` [Compound 31]: the half-maximal inhibitory concentration (IC50) was 250 to 1000 nM. Then `CC(=O)N[C@H]1C[C@H](Cn2c(C#N)cc3c(C)c(CN4CCC(Nc5ncnc6sc(CC(F)(F)F)cc56)CC4)ccc32)C1` [Compound 32], with 50 to 250 nM.

As for `Cc1c(CN2CCC(Nc3ncnc4sc(CC(F)(F)F)cc34)CC2)ccc2c1cc(C#N)n2CC12CC(NC(=O)CNC=O)(C1)C2` [Compound 33], the IC50 lay within 250 to 1000 nM. For the compound `Cc1c(CN2CCC(Nc3ncnc4sc(CC(F)(F)F)cc34)CC2)ccc2c1cc(C#N)n2CC12CC(NC(=O)c3ccc[nH]3)(C1)C2` [Compound 34], the IC50 was in the range of 50 to 250 nM.

As for `Cc1c(CN2CCC(Nc3ncnc4sc(CC(F)(F)F)cc34)CC2)ccc2c1cc(C#N)n2CC12CC(NC(=O)c3cccc(=O)[nH]3)(C1)C2` [Compound 35], the 50% inhibitory concentration (IC50) is less than 50 nM. In the case of `Cc1c(CN2CCC(Nc3ncnc4sc(CC(F)(F)F)cc34)CC2)ccc2c1cc(C#N)n2CC12CC(NC(=O)CNS(C)(=O)=O)(C1)C2` [Compound 36], the IC50 is 50 to 250 nM.

Consider `Cc1c(CN2CCC(Nc3ncnc4sc(CC(F)(F)F)cc34)CC2)ccc2c1cc(C#N)n2CC12CC(C(=O)NCCN)(C1)C2` [Compound 37], for which the IC50 is less than 50 nM. Then `Cc1c(CN2CCC(Nc3ncnc4sc(CC(F)(F)F)cc34)CC2)ccc2c1cc(C#N)n2CC12CC(NC(=O)c3cnc[nH]3)(C1)C2` [Compound 38], with 50 to 250 nM; and `Cc1c(CN2CCC(Nc3ncnc4sc(CC(F)(F)F)cc34)CC2)ccc2c1cc(C#N)n2CC12CC(NC(=O)CCN)(C1)C2` [Compound 39], with less than 50 nM; and `Cc1c(CN2CCC(Nc3ncnc4sc(CC(F)(F)F)cc34)CC2)ccc2c1cc(C#N)n2CC12CC(NC(=O)CN(C)C)(C1)C2` [Compound 40], with less than 50 nM.

`Cc1c(CN2CCC(Nc3ncnc4sc(CC(F)(F)F)cc34)CC2)ccc2c1cc(C#N)n2CC12CC(NC(=O)C3CCCN3)(C1)C2` (centres unmarked) [Compound 41]: the IC50 is less than 50 nM. Under `Cc1c(CN2CCC(Nc3ncnc4sc(CC(F)(F)F)cc34)CC2)ccc2c1cc(C#N)n2CC12CC(NC(=O)CNC3CC3)(C1)C2` [Compound 42] stands 50 to 250 nM; under `COCC(=O)NC12CC(Cn3c(C#N)cc4c(C)c(CN5CCC(Nc6ncnc7sc(CC(F)(F)F)cc67)CC5)ccc43)(C1)C2` [Compound 43], 50 to 250 nM; under `CNCC(=O)NC12CC(Cn3c(C#N)cc4c(C)c(CN5CCC(Nc6ncnc7sc(CC(F)(F)F)cc67)CC5)ccc43)(C1)C2` [Compound 48], less than 50 nM. For `Cc1c(CN2CCC(Nc3ncnc4sc(CC(F)(F)F)cc34)CC2)ccc2c1cc(C#N)n2CC12CC(N(C3CC3)C3CC3)(C1)C2` [Compound 49], the half-inhibitory concentration (IC50) is greater than 1000 nM. Then `CCC(=O)NC12CC(Cn3c(C#N)cc4c(C)c(CN5CCC(Nc6nc(N)nc7sc(CC(F)(F)F)cc67)CC5)ccc43)(C1)C2` [Compound 54], with less than 50 nM; and `CCC(=O)NC12CC(Cn3c(C#N)cc4c(C)c(CN5CCC(Nc6nc(C)nc7sc(CC(F)(F)F)cc67)CC5)ccc43)(C1)C2` [Compound 55], with 50 to 250 nM; and `Cc1c(CN2CCC(Nc3ncnc4sc(CC(F)(F)F)cc34)CC2)ccc2c1cc(C#N)n2CC12CC(NC(=O)CN3CCOCC3)(C1)C2` [Compound 56], with less than 50 nM. Consider `Cc1c(CN2CCC(Nc3ncnc4sc(CC(F)(F)F)cc34)CC2)ccc2c1cc(C#N)n2CC12CC(NC(=O)CN3CCCC3)(C1)C2` [Compound 57], for which the half-inhibitory concentration (IC50) is less than 50 nM. In the case of `Cc1c(CN2CCC(Nc3ncnc4sc(CC(F)(F)F)cc34)CC2)ccc2c1cc(C#N)n2CC12CC(NC(=O)C3CCCN3C)(C1)C2` (centres unmarked) [Compound 58], the concentration for half-maximal inhibition (IC50) is less than 50 nM.

As for `Cc1c(CN2CCC(Nc3ncnc4sc(CC(F)(F)F)cc34)CC2)ccc2c1cc(C#N)n2CC12CC(NC(=O)C(C)(C)N)(C1)C2` [Compound 59], the 50% inhibitory concentration (IC50) is less than 50 nM. Under `Cc1c(CN2CCC(Nc3ncnc4sc(CC(F)(F)F)cc34)CC2)ccc2c1cc(C#N)n2CC12CC(NC(=O)C3(N)CC3)(C1)C2` [Compound 60] stands 50 to 250 nM; under `Cc1c(CN2CCC(Nc3ncnc4sc(CC(F)(F)F)cc34)CC2)ccc2c1cc(C#N)n2CC12CC(NC(=O)C(N)C(C)C)(C1)C2` (centres unmarked) [Compound 62], less than 50 nM. Then `Cc1c(CN2CCC(Nc3ncnc4sc(CC(F)(F)F)cc34)CC2)ccc2c1cc(C#N)n2CC12CC(NC(=O)C(C)(C)O)(C1)C2` [Compound 63], with 50 to 250 nM. Then `Cc1c(CN2CCC(Nc3ncnc4sc(CC(F)(F)F)cc34)CC2)ccc2c1cc(C#N)n2CC12CC(NC(=O)C(C)N)(C1)C2` (centres unmarked) [Compound 64], with less than 50 nM; and `Cc1c(CN2CCC(Nc3ncnc4sc(CC(F)(F)F)cc34)CC2)ccc2c1cc(C#N)n2CC12CC(NC(=O)C(N)c3ccccc3)(C1)C2` (centres unmarked) [Compound 65], with less than 50 nM; and `Cc1c(CN2CCC(Nc3ncnc4sc(CC(F)(F)F)cc34)CC2)ccc2c1cc(C#N)n2CC12CC(NC(=O)C(C)O)(C1)C2` (centres unmarked) [Compound 66], with 50 to 250 nM.

Turning to `Cc1c(CN2CCC(Nc3ncnc4sc(CC(F)(F)F)cc34)CC2)ccc2c1cc(C#N)n2CC12CC(NC(=O)C(O)CO)(C1)C2` (centres unmarked) [Compound 67], the half-maximal inhibitory concentration (IC50) was in the range of 50 to 250 nM.

Regarding `Cc1c(CN2CCC(Nc3ncnc4sc(CC(F)(F)F)cc34)CC2)ccc2c1cc(C#N)n2CC12CC(NC(=O)C3(O)CC3)(C1)C2` [Compound 68], the IC50 fell in the range of 50 to 250 nM.

For the compound `Cc1c(CN2CCC(Nc3ncnc4sc(CC(F)(F)F)cc34)CC2)ccc2c1cc(C#N)n2CC12CC(NC(=O)C(N)C(F)(F)F)(C1)C2` (centres unmarked) [Compound 69], the IC50 lay within 250 to 1000 nM.
